Active and inactive are the calls of the source.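 Rule for the calls: active = plate Z score at or below -3, or inhibition of at least 30% at 20 µM; inactive = the rest.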
Assay: EGFP reporter destabilization counter-screen – F442A EGFP cells, fluorescence, counter-screen for p/CIP destabilizer project, dose response (AID 2005);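 note: cells express EGFP alone from a CMV promoter as a counter screen for p/CIP-EGFP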
Settings: F442A EGFP cells, EGFP fluorescence, 16 h, stronger effect = higher value

| SMILES | inhibition (EGFP decrease, at 10 µM) | inhibition (at 20 µM) |
| --- | --- | --- |
| COc1ccc(CNC2CCCCC2)cc1 | 26% | 20.4% (inactive) |
| CN=Cc1sc2ccccc2c1O | 26.9% | 29.7% (inactive) |
| CC(C)CC(=O)Nc1ncnc2c1C(=O)CC(C)(C)C2 | 11.5% | 12.2% (inactive) |
| CCc1c(C)nc(SCC(=O)Nc2cccc(Br)c2)[nH]c1=O | 35.5% | 12.1% (inactive) |
| COc1cccc2cc(C(C)=O)c(=O)oc12 | 33.2% | 24.2% (inactive) |
| CC1CC(C)CN(c2ccc(NS(=O)(=O)c3ccccc3)cc2C(=O)O)C1 (stereo unspecified) | 9.8% | 2.9% (inactive) |
| CCCC(=O)C1=C(N(C)c2ccccc2)CC(C)(C)CC1=O | 24.9% | 21.6% (inactive) |
| CCS(=O)(=O)N1CCN(c2nc(-c3ccccc3)cs2)CC1 | 13.7% | 15.1% (inactive) |
| Cc1c(NC(=O)C(C)OC(=O)/C=C/c2ccco2)c(=O)n(-c2ccccc2)n1C (stereo unspecified) | 10.9% | -5.3% (inactive) |
| Nc1ccc2nc(-c3ccc(-c4nc5ccc(N)cc5[nH]4)cc3)[nH]c2c1 | 15.4% | 25% (inactive) |
| Cc1ccc(S(=O)(=O)Nc2cc(C(C)C)c(O)cc2C)cc1 | -16.2% | -4.5% (inactive) |
| CC(C(=O)NC1=NCCS1)N1C(=O)C2CC=CCC2C1=O (stereo unspecified) | 20.2% | 27.7% (inactive) |
| COc1ccc(CN(CC(=O)NCc2ccc(F)cc2)C(=O)CCC(=O)Nc2ccccn2)cc1 | -14.2% | 16.1% (inactive) |
| CC(OC(=O)c1cccc(-n2cnnn2)c1)C(=O)N(C)c1ccccc1 (stereo unspecified) | 23.3% | 6% (inactive) |
| CCOc1ccc(N(CC(=O)Nc2cccc(Br)c2)S(C)(=O)=O)cc1 | 36.5% | 12.4% (inactive) |
| CC(C)[C@H](NC(=O)c1ccc(F)cc1)C(=O)NC1=NCCS1 | 21.6% | 2.2% (inactive) |
| COc1ccc(OC)c(NS(=O)(=O)c2c(C(=O)N3CCCCCC3)c(C)n(C)c2C)c1 | 32.8% | 15.9% (inactive) |
| O=C(CCCOc1ccccc1)Nc1nncs1 | -15.9% | 22.7% (inactive) |
| Cc1ccccc1NC(=O)C1CCCN(C(=O)Nc2ccc(F)cc2)C1 (stereo unspecified) | 12.3% | 3.2% (inactive) |

| SMILES | inhibition (EGFP decrease, at 10 µM) | inhibition (at 20 µM) |
| --- | --- | --- |
| COc1cc(NC(=O)c2ccccc2[N+](=O)[O-])c(C(=O)O)cc1OC | 9.2% | -1.6% (inactive) |
| CC(C)(C)n1nc2c(c1NC(=O)c1cc(Cl)ccc1[N+](=O)[O-])CS(=O)(=O)C2 | 10.5% | 22.6% (inactive) |
| O=C(CN1CCN(Cc2ccccc2Cl)C1=O)NCc1ccco1 | 17.1% | 31.5% |
| CC(CCc1ccccc1)NC(=O)CNC(=O)COc1ccccc1 (stereo unspecified) | -4.8% | 28.2% (inactive) |
| CCOc1ccc(N(CC(=O)N2CCOCC2)S(=O)(=O)c2ccc(Cl)cc2)cc1 | 12.8% | 14.1% (inactive) |
| CC(=O)c1cccc(OCc2cc(C(=O)N3CC4C[C@@H]5CC3C[C@H](C4)C5)no2)c1 | 37.1% | 27% (inactive) |
| CC1CCCCC1NC(=O)c1cn(C)c2ccc(S(=O)(=O)N3CCCC3)cc2c1=O (stereo unspecified) | 12.3% | 6.4% (inactive) |
| O=C(O)c1ccc(NC2=C/C(=N/S(=O)(=O)c3ccccc3)c3ccccc3C2=O)cc1 | 38.1% | 41.2% |
| CC(C)c1ccc(NC(=S)NN2C(C)CCCC2C)cc1 (stereo unspecified) | 8.5% | 0.8% (inactive) |
| Cc1cc(N2C(=O)C(O)=C(C(=O)c3ccco3)C2c2ccc([N+](=O)[O-])cc2)no1 (stereo unspecified) | 39.5% | 4.5% (inactive) |
| COc1cc2c(cc1NC(=O)/C=C/c1ccccc1)oc1ccccc12 | 12.4% | -0.8% (inactive) |
| CCN(CC(=O)N1CCOCC1)S(=O)(=O)c1ccccc1 | 7.2% | -27.6% (inactive) |
| C/C(=N\NC(=O)c1cccs1)c1c(O)cc(C)oc1=O | 28.7% | 0.8% (inactive) |
| Cc1cc2nnc(SCC(=O)N3CCOCC3)n2c2ccccc12 | 26.4% | 17.9% (inactive) |
| C/C(=C/C=C/[C@@H](C)C(=O)O)[C@H]1CN[C@H](C(=O)O)[C@H]1CC(=O)O | -8.3% | 10.3% (inactive) |
| CCOc1ccc(NC(=O)CSc2nc3ccccc3c(=O)n2CCNC(C)=O)cc1 | 13.6% | 15% (inactive) |
| O=C(NCCSc1ccccn1)c1ccc(Cl)cc1Cl | 19.7% | 3.4% (inactive) |
| Cc1ccc2nc(-c3ccc(S(=O)(=O)N4CCOCC4)cc3)cn2c1 | 14.7% | 6.1% (inactive) |
| CCCC(C)C1(CC)C(=O)NC(=Nc2ccc(F)cc2)NC1=O (stereo unspecified) | 37.5% | 27.3% (inactive) |
